In patent US11969476B2, “Antibody molecule-drug conjugates and uses thereof” (priority 2020, dated 2024):
≈ marks a conversion by molar mass, not a printed value. Read-outs that look alike come from different tables or passages of the source. Square brackets hold non-standard residues; d marks the D form. Peptide text beside a SMILES is read from it.

Legend:
Pae 27853 = assay: MIC determination (CLSI, 2-fold serial dilutions); format: cell-based, Pseudomonas aeruginosa
Method: (§1) Assessment of Antimicrobial Activity. […] All plates were placed at 37° C. overnight. After 18 hours the plates were read using a mirrored plate reader and reflected incandescent light. […] Wells at and above the MIC should appear void of growth when read by eye.

Pae 39324 = assay: MIC determination (CLSI, 2-fold serial dilutions); format: cell-based, Pseudomonas aeruginosa
Method: as §1

Eco 25922 = assay: MIC determination (CLSI, 2-fold serial dilutions); format: cell-based, E. coli
Method: as §1

Sau 29213 = assay: MIC determination (CLSI, 2-fold serial dilutions); format: cell-based, S. Aureus
Method: as §1

[1] = MIC in human serum (hsMIC) relative to MIC; format: cell-based; details: NA, no active in human serum
Method: In an embodiment, the MIC is determined in the presence of phosphate-buffered saline (PBS). In an embodiment, the MIC or hsMIC is determined on per ADC basis. In an embodiment, the MIC or hsMIC is determined on per payload or antimicrobial peptide basis.

human red blood cells [2] = test system: human red blood cells
P. aeruginosa BAA-2108 = test system: P. aeruginosa BAA-2108; parameters: key: R = Resistant; S = Suspectible; I = Intermediate; NT = Note Tested; details: strain BAA-2108, isolated from human sputum; cited from earlier work
P. aeruginosa BAA-2109 = test system: P. aeruginosa BAA-2109; parameters: key: R = Resistant; S = Suspectible; I = Intermediate; NT = Note Tested; details: strain BAA-2109, isolated from human sputum; cited from earlier work
P. aeruginosa BAA-2110 = test system: P. aeruginosa BAA-2110; parameters: key: R = Resistant; S = Suspectible; I = Intermediate; NT = Note Tested; details: strain BAA-2110, isolated from human sputum; cited from earlier work
P. aeruginosa BAA-2111 = test system: P. aeruginosa BAA-2111; parameters: key: R = Resistant; S = Suspectible; I = Intermediate; NT = Note Tested; details: strain BAA-2111, isolated from human sputum; cited from earlier work
P. aeruginosa BAA-2112 = test system: P. aeruginosa BAA-2112; parameters: key: R = Resistant; S = Suspectible; I = Intermediate; NT = Note Tested; details: strain BAA-2112, isolated from human sputum; cited from earlier work
P. aeruginosa BAA-2113 = details: strain BAA-2113, isolated from human sputum; cited from earlier work
P. aeruginosa BAA-2114 = test system: P. aeruginosa BAA-2114; parameters: key: R = Resistant; S = Suspectible; I = Intermediate; NT = Note Tested; details: strain BAA-2114, isolated from human sputum; cited from earlier work
[3] = Cytotoxicity to mammalian cells; details: human, 293T cells, Cytotox CC50, concentration at which 50% cytotoxicity of mammalian cells is observed
[4] = in words, human serum
Method: Assessment of Serum Stability. […] Twenty μl of each test article was placed in a 2.0 ml round bottom microfuge tube. […] Assay tubes were placed at 37° C. in a rotating rack between time-points. […] Supernatant from each tube was collected and frozen at −20° C. for analysis. Samples were harvested and processed at various time-points up to 6 hours.

293T = assay: Cytotoxicity to mammalian cells; details: in words
human red blood cells [5] = assay: Red blood cell hemolysis (MLC, PLC); details: in words
P. aeruginosa = assay: MIC testing of antimicrobial peptides (screen); format: cell-based; details: in words
Description: Initially, a bioinformatics-driven workflow (mine public database of AMPs (YADAMP)→cluster AMPs by properties→evaluate activity and toxicity) was utilized to select AMPs for experimental characterization to identify potent payloads with a high therapeutic index (FIG. 7A). […] To facilitate identification of AMPs for use in an ADC, a screening strategy that clustered peptides based on their underlying physicochemical properties was implemented, followed by characterization of representative members from each cluster. Here YADAMP, a database of AMPs that contains over 2,500 sequences of peptides with reported antibacterial activity, was used. Clustering was performed by utilizing a K-means algorithm using calculated properties that have been reported to be relevant to antimicrobial activity (peptide length, predicted helicity, predicted hydropathy, percentage of select amino acids [Lys, Arg, Trp, Cys, His], and charge at pH7, pH5, and pH9). […] Once potent peptides with favorable characteristics were identified, the remaining members of the corresponding clusters were then selected for experimental characterization. […]
Assessment of Antimicrobial Activity. […] After 18 hours the plates were read using a mirrored plate reader and reflected incandescent light. […] Wells at and above the MIC should appear void of growth when read by eye.

P. aeruginosa PA14 = assay: Acute (immunocompetent) lung infection model; details: immunocompetent mice, single intraperitoneal dose 15 mg/kg three hours post-infection, 100 hours
[6] = numbers in parentheses are molar equivalents

**Q.** Which results are given for `CC(C)(O/N=C(\C(=O)N[C@@H]1C(=O)N2C(C(=O)[O-])=C(C[n+]3ccccc3)CS[C@H]12)c1csc(N)n1)C(=O)O` [Ceftazidime]?
**A.** MIC Pae 27853 (Pae 27853): 1 μg,/ml; MIC Pae 27853, molar equivalents (Pae 27853; [6]): (1.8); MIC Pae 39324 (Pae 39324): 1 μg,/ml; MIC Pae 39324, molar equivalents (Pae 39324; [6]): (1.8); MIC Eco 25922 (Eco 25922): 0.25 μg,/ml; MIC Eco 25922, molar equivalents (Eco 25922; [6]): (0.5); MIC Sau 29213 (Sau 29213): 4 μg,/ml; MIC Sau 29213, molar equivalents (Sau 29213; [6]): (7.3); Human Serum hsMIC/MIC [1]: 1; Hemolysis MLC/MIC (human red blood cells [2]): 16; Hemolysis PLC/MIC (human red blood cells [2]): 8; antibiotic resistance phenotype (P. aeruginosa BAA-2108): S; antibiotic resistance phenotype (P. aeruginosa BAA-2109): S; antibiotic resistance phenotype (P. aeruginosa BAA-2110): S; antibiotic resistance phenotype (P. aeruginosa BAA-2111): S; antibiotic resistance phenotype (P. aeruginosa BAA-2112): S; antibiotic resistance phenotype (P. aeruginosa BAA-2113): I/R; antibiotic resistance phenotype (P. aeruginosa BAA-2114): S; CC50 [3]: 550 µg/mL (≈ 1010 µM)

**Q.** Which serum stability [4] does the source give for `CC[C@@H](C)[C@@H](NC(=O)[C@H](NC(=O)[C@@H](CCCNC(=N)N)NC(=O)[C@H]1CCCN1C(=O)[C@@H](CCCCN)NC(=O)[C@@H](CCCCN)NC(=O)[C@@H](Cc1ccccc1)NC(=O)[C@@H](Cc1ccccc1)NC(=O)[C@@H](CCC(=O)O)NC(=O)[C@@H](CCCCN)NC(=O)[C@@H](C)NC(=O)[C@@H](CCCNC(=N)N)NC(=O)[C@@H](CCCCN)NC(=O)[C@@H](CCCCN)NC(=O)[C@H](NC(=O)[C@@H](CO)NC(=O)[C@@H](CCCCN)NC(=O)[C@@H](CCCCN)NC(=O)[C@@H](CC(C)C)NC(=O)[C@@H](CCCCN)NC(=O)[C@@H](CCCNC(=N)N)NC(=O)[C@@H](Cc1ccccc1)NC(=O)[C@@H](Cc1ccccc1)NC(=O)[C@@H](CCCCN)NC(=O)CNC(=O)CNC(=O)CN)C(C)C)C(C)C)C(=O)NCC(=O)N[C@@H](C(=O)N[C@H](CO)C(=O)N[C@@H](C(=O)N1CCC[C@@H]1C(=O)N[C@H](Cc1ccccc1)C(=O)O)[C@H](C)CC)C(C)C` [Peptide D297] (H-GGG[dK][dF][dF][dR][dK][dL][dK][dK][dS][dV][dK][dK][dR][dA][dK][dE][dF][dF][dK][dK][dP][dR][dV][dI]G[dV][dS][dI][dP][dF]-OH) here?
**A.** stable in serum

**Q.** And the serum stability ([4]; listed as (D)-P297)?
**A.** more stable than (L)-P297

**Q.** What about the “cytotoxic activity against mammalian cells” value (293T) of the same molecule?
**A.** low hemolytic and cytotoxic activity

**Q.** What about the hemolytic activity (human red blood cells [5]) of the same molecule?
**A.** low hemolytic and cytotoxic activity

**Q.** For “GGGKLLRKLKKSVKKRAKELLKKPRVIGVSIPL [Peptide P369]”, which “potency against P. aeruginosa” value (P. aeruginosa) is on record?
**A.** more potent peptide

**Q.** With cathelicidin-BF as the molecule, how does the “potency against P. aeruginosa” value (P. aeruginosa) read?
**A.** potent MIC values against multiple P. aeruginosa strains

**Q.** And the “cytotoxic activity against mammalian cells” value (293T)?
**A.** inability to kill mammalian cells

**Q.** And the hemolytic activity (human red blood cells [5])?
**A.** low hemolytic activity

B1: actoxumab-D297: sham-conjugate prepared using a non-P. aeruginosa targeting antibody (actoxumab) (conjugate, chains of the INN, looked up)
VH: QVQLVESGGGVVQPGRSLRLSCAASGFSFSNYGMHWVRQAPGKGLEWVALIWYDGSNEDYTDSVKGRFTISRDNSKNTLYLQMNSLRAEDTAVYYCARWGMVRGVIDVFDIWGQGTVVTVSS
VL: DIQMTQSPSSVSASVGDRVTITCRASQGISSWLAWYQHKPGKAPKLLIYAASSLQSGVPSRFSGSGSGTDFTLTISSLQPEDFATYYCQQANSFPWTFGQGTKVEIK
modifications: D297 payload; sham conjugate
**Q.** For B1, which survival (P. aeruginosa PA14) is on record?
**A.** no survival benefit
